Reference: patent publication US20060110356A1, “Ophthalmic drug delivery system using polymer micelle” (NANOCARRIER KABUSHIKI KAISHA, priority 2003, published 2006)

Legend:
skin = details: rat, in vivo, iv
Procedure: As a comparative control, Photofrin was administered under the same condition.
Four hours after the administration, a xenon lamp was irradiated on the shaved part (wavelength: 377-700 nm, power density: 30 mW/cm^2, irradiation area: 4 cm^2).

[1] = test system: choroidal neovascular (CNV) model; assay: Intraocular transfer of fluorescent-labelled PIC micelle in rat CNV model (fluorescence microscopy of frozen sections); assay type: in vivo, BN rat; details: intravenous, 400 μL of 5 mg/mL in physiological saline
Procedure: A diblock copolymer having polyethylene glycol (PEG) as a hydrophilic polymer chain, and polyaspartic acid (P(Asp)) as an anionic polymer chain within one molecule was dispersed in water, and mixed with FITC-labelled polylysine (FITC-P(Lys)) to prepare a core-shell type PIC micelle solution (5 mg/mL) having a core of a polylon complex (PIC) consisting of P(Asp) and FITC-P(Lys), and a shell of PEG.
After generally anesthetizing a BN rat by intramuscular administration of 1 mL/kg of a mixture of a 5% ketamine hydrochloride injection and a 2% xylazine hydrochloride injection (7:1), eye drops of a 0.5% tropicamide-0.5% phenylephrine hydrochloride ophthalmic solution were administered to render mydriasis. Then, photocoagulation was carried out with a semiconductor laser photocoagulator. Photocoagulation was carried out on six scattering positions per one eye in a posterior portion of the ocular fundus while focusing on retinal deep layer (coagulation conditions: spot size 75 μm, output 200 mW, coagulation time 0.05 sec) such that irradiation of large retinal vessels was avoided. […]
Following administration, the eyeball was removed after a predetermined time, and a frozen tissue section was prepared. Thereafter, leakage of the fluorescence to the choroidal neovascular site was qualitatively observed by a fluorescence microscope.

Row | photosensitive erethism on the skin (skin) | Substance | toxicity (death of animal) [1]
1 | photosensitive erethism was found | Photofrin | –
2 | – | FITC-labelled polylysine [FITC-P(Lys)] | the animal died one hour after the administration due to its toxicity
